Source: ChEMBL document CHEMBL3576800, “Discovery of a Potent and Orally Bioavailable Dual Antagonist of CC Chemokine Receptors 2 and 5” (ACS Med Chem Lett, 2015)

Tests used:
Liver microsome = conditions: rat, microsomes
Description: Drug metabolism in rat liver microsomes

Mus musculus = species: Mus musculus; conditions: in vivo, po, 10 mg/kg, 4 h
[1] = Oral bioavailability in cynomolgus monkey at 1.4 mg/kg after 0.25 to 24 hrs by LC/MS/MS method; assay type: ADME, organism-based, Macaca fascicularis; conditions: in vivo
[2] = AUC in cynomolgus monkey at 1.4 mg/kg, po after 0.25 to 24 hrs by LC/MS/MS method; assay type: ADME, organism-based, Macaca fascicularis; design: time 0.25-24 hr, dose 1.4 mg/kg, route oral; conditions: in vivo
[3] = Oral bioavailability in Sprague-Dawley rat at 25 mg/kg after 0.25 to 24 hrs by LC/MS/MS method; assay type: ADME, organism-based; conditions: in vivo
[4] = Clearance in cynomolgus monkey at 1 mg/kg, iv after 0.25 to 24 hrs by LC/MS/MS method; assay type: ADME, organism-based, Macaca fascicularis; conditions: in vivo
[5] = AUC in Sprague-Dawley rat at 25 mg/kg, po after 0.25 to 24 hrs by LC/MS/MS method; assay type: ADME, organism-based; design: time upper 24 hr, dose 25 mg/kg, time lower 0.25 hr, route oral; conditions: in vivo
[6] = Clearance in Sprague-Dawley rat at 2.5 mg/kg, iv after 0.25 to 24 hrs by LC/MS/MS method; assay type: ADME, organism-based; conditions: in vivo

AUC/dose (Mus musculus)	SMILES	Drug metabolism (Liver microsome)	other results
1.1 µM·h	CC(C)N(C)[C@@H]1CC[C@H](NC(=O)CNC(=O)c2cccc(C(F)(F)F)c2)[C@H](CS(=O)(=O)c2ccccc2)C1	0.16 nmol/min/mg	
22 µM·h	CCC[C@@H]1C[C@H](N(C)C(C)C)CC[C@@H]1N1CC[C@H](Nc2ncnc3ccc(C(F)(F)F)cc23)C1=O		bioavailability [1]: 46%; AUC [2]: 0.862 µM·h; bioavailability [3]: 68%; clearance [4]: 1.5 L/h/kg; AUC [5]: 9.29 µM·h; clearance [6]: 2.4 L/h/kg

Continued, compound first:

SMILES	AUC/dose (Mus musculus)	Drug metabolism (Liver microsome)	other results
COC[C@@H]1C[C@H](N(C)C(C)C)CC[C@@H]1NC(=O)CNC(=O)c1cccc(C(F)(F)F)c1		0.01 nmol/min/mg	
CCCC[C@@H]1C[C@H](N(C)C(C)C)CC[C@@H]1NC(=O)CNC(=O)c1cccc(C(F)(F)F)c1		0.17 nmol/min/mg	
CC(C)N(C)[C@@H]1CC[C@H](NC(=O)CNC(=O)c2cccc(C(F)(F)F)c2)[C@H](COc2ccccc2)C1		0.29 nmol/min/mg	
